According to article PMC11541513, “Inhibitory Effects of Mangifera indica Secondary Metabolites and Their Synthetic Derivatives against SARS-CoV-2 M^pro and NS2B/NS3 (ZIKV and DENV-2)” (ACS Omega, 2024):
“And” between values parts separate entries of the source, which are not always exact repeats. Equal values may be shown once. Read-outs that look alike come from different tables or passages of the source.

What was measured:
SARS-CoV-2 M^pro = target: T1, SARS-CoV-2 M^pro (Severe acute respiratory syndrome coronavirus 2, UniProt P0DTD1); test: SARS-CoV-2 M^pro inhibition assay (chromogenic peptide substrate); type: biochemical; details: for IC50: M^pro, substrate 200 μM; for inhibition at 200 µM: read-out: effect at 200 μM (%); for obs.: observation at the end of the M^pro experiment; for solubility during the biological testing: result in words, M^pro testing
T1 construct: 30 μL of Mpro enzyme (Sigma-Aldrich) at a final concentration of 10 μg/mL; purchased Sigma-Aldrich
Method: Inhibitory effects against M^pro of all compounds were evaluated based on the experimental procedure provided by the manufacturer with some modifications.
[…] of chemicals dissolved in DMSO, with a final concentration of 200 μM, were put in triplicate to each well of a 96-well flat bottom microplate. After that, the plate was incubated for 10 min at room temperature with 30 μL of Mpro enzyme (Sigma-Aldrich) at a final concentration of 10 μg/mL diluted in buffer containing 25 mM HEPES (Sigma-Aldrich) and 0.2% of Tween-20 (Sigma-Aldrich). Furthermore, the chromogenic peptide substrate (Thr-Ser-Ala-Val-Leu-Gln-pNA, Sigma-Aldrich) was added in a volume of 10 μL to each well, at a final concentration of 200 μM and incubated for another 45 min at 37 °C. […] As directed by the manufacturer, with minor modifications, the experiment was carried out to ascertain the half-maximum inhibitory concentration (IC50) that may block the activity of the M^pro enzyme. […] The plate was then kept at room temperature for 10 min. Following this time interval, 10 μL of a 200 μM final concentration of chromogenic peptide substrate (Sigma-Aldrich) was added to each well, and the mixture was incubated for an additional 45 min at 37 °C.

[1] = Cytotoxicity against THP-1 cells (resazurin); type: cell-based; details: human, THP-1 cells differentiated with PMA, read-out: CC50 ± SD (μM) THP-1
Method: (§1) In a 96-well flat bottom microplate, THP-1 cells (12 × 10^4 cells/well) were seeded with 180 μL of RPMI 1640 medium (Sigma-Aldrich) without phenol red supplemented with 10% FBS (Sigma-Aldrich), 2 mM L-glutamine (Gibco), […] (Sigma-Aldrich), 10 U/mL penicillin (Gibco), and 10 μg/mL streptomycin (Gibco) in the presence of 100 ng/mL of phorbol-12-myristate-13-acetate (PMA) (Sigma-Aldrich). The microplate was then incubated at 37 °C in a 5% CO2 atmosphere for 72 h. Vero cells ([…]) were seeded in 180 μL of RPMI 1640 media (Sigma-Aldrich), which was then supplemented with 10% FBS (Sigma-Aldrich), 10 U/mL penicillin (Gibco), and 10 μg/mL streptomycin (Gibco). The cells were then incubated for 24 h at 37 °C in a 5% CO2 environment. Each target chemical, diluted in RPMI-1640 media (Sigma-Aldrich) without FBS, at doses of 150, 50, 16.7, and 5.6 μM, was applied in 20 μL to each of the two cell lines. The positive and negative controls were 50 and 0.3% DMSO (Sigma-Aldrich), respectively. The plates were incubated in an environment containing 5% CO2 for 67 h at 37 °C. Next, 20 μL of resazurin (250 μg/mL) from Sigma-Aldrich was added, and the mixture was incubated at 37 °C for 5 h. The microplate was measured using a Tecan Model Infinite M200 spectrophotometer at 530 and 590 nm in wavelengths. Every experiment was run three times.[23],[24]

[2] = Cytotoxicity against Vero cells (resazurin); type: cell-based; details: African green monkey, read-out: CC50 ± SD (μM) Vero
Method: as §1

ZIKV NS2B/NS3 = target: T2, ZIKV NS2B/NS3 (Zika virus, UniProt Q32ZE1); test: ZIKV NS2B/NS3 protease fluorogenic substrate assay; type: biochemical; details: for inhibition at 100 µM: read-out: screening at 100 μM (%); for mechanism of inhibition: ZIKV NS2B/NS3, IC50 at four substrate concentrations, Dixon plots; for inhibition at 20 µM: read-out: screening at 20 μM (%)
T2 construct: tested against the nonstructural protease of ZIKV (NS2B/NS3)
T2 sequence (Q32ZE1 1421-1460): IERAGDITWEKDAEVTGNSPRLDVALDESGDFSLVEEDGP
T2 sequence (Q32ZE1 1499-1676): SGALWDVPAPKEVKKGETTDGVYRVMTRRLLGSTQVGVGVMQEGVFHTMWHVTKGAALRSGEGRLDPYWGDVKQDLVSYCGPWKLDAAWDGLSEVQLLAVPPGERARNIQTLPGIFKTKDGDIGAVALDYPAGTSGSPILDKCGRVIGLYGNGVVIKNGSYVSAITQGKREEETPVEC

DENV-2 NS2B/NS3 = DENV-2 NS2B/NS3 (Dengue virus type 2, UniProt P29990); test: DENV-2 NS2B/NS3 protease fluorogenic substrate assay; details: for inhibition at 100 µM: read-out: screening at 100 μM (%), DENV-2 NS2B/NS3, 100 μM compound
Chain of DENV-2 NS2B/NS3 (P29990 1398-1437): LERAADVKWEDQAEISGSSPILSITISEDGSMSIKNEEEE
Chain of DENV-2 NS2B/NS3 (P29990 1476-1653): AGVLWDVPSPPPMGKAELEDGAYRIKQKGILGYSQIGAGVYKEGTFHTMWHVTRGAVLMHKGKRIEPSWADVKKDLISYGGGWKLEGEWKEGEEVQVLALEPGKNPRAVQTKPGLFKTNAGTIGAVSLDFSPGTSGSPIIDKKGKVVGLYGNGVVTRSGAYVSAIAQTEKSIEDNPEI

[3] = inhibitory percentage against M^pro at 200 μM, NA: no activity
[4] = IC50 at substrate 50 μM, binding mechanism study, Boc-Gly-Arg-Arg-AMC 50 μM
[5] = IC50 at substrate 100 μM, binding mechanism study, Boc-Gly-Arg-Arg-AMC 100 μM
[6] = IC50 at substrate 150 μM, binding mechanism study, Boc-Gly-Arg-Arg-AMC 150 μM
[7] = IC50 at substrate 200 μM, binding mechanism study, Boc-Gly-Arg-Arg-AMC 200 μM
[8] = ZIKV NS2B/NS3, substrate 100 μM, read-out: IC50

Molecule	IC50 (SARS-CoV-2 M^pro) [µM]	inhibition at 200 µM (SARS-CoV-2 M^pro; [3]) [%]	CC50 at 67 h [1] [µM]	CC50 at 67 h [2] [µM]	inhibition at 100 µM (ZIKV NS2B/NS3; ZIKV NS2B/NS3, 100 μM compound) [%]	IC50 (ZIKV NS2B/NS3; [8]) [µM]	inhibition at 100 µM (DENV-2 NS2B/NS3) [%]	inhibition at 20 µM (ZIKV NS2B/NS3; ZIKV NS2B/NS3, 20 μM compound) [%]	other results
CC(C)=CCCC(C)=CCOC(=O)c1cc(O)c(O)c(O)c1 [Compound 2f]	9.5 ± 1	97	72.1 ± 7.3	48.4 ± 13.2	99 ± 0.4	2.7 ± 0.3	> 50		IC50 (ZIKV NS2B/NS3; [4]): 3.2 µM; IC50 (ZIKV NS2B/NS3; [5]): 3.04 µM; IC50 (ZIKV NS2B/NS3; [6]): 3.6 µM and 3.61 µM; IC50 (ZIKV NS2B/NS3; [7]): 3.78 µM; screening at 20 μM (%) (ZIKV NS2B/NS3; ZIKV NS2B/NS3, 20 μM compound): 98 ± 1.1%; mechanism of inhibition (ZIKV NS2B/NS3): noncompetitive; inhibition at 20 µM (ZIKV NS2B/NS3): 98%
COC(=O)c1cc(OC)c(OC)c(OC)c1 [Compound 2l, Methyl 3,4,5-trimethoxybenzoate]		55.5	> 150	> 150					obs. (SARS-CoV-2 M^pro): SP^#; solubility during the biological testing (SARS-CoV-2 M^pro): solubility problems
COC(=O)c1cc(O)c(O)c(O)c1 [Compound 2, methyl gallate]	4.5 ± 1.8		52.9 ± 19.2	> 150					effect at 200 μM (%) (SARS-CoV-2 M^pro; [3]): 68.0%; inhibition at 200 µM (SARS-CoV-2 M^pro): 68%
CCC=CCCOC(=O)c1cc(O)c(O)c(O)c1 [Compound 2k]		41.9			100 ± 0.1	6.1 ± 0.6	28 ± 4	86 ± 0.8	
CCCCCCCCCCCCCCOC(=O)c1cc(O)c(O)c(O)c1 [Compound 2b]						84.9 ± 9	21 ± 3		inhibition at 20 µM (ZIKV NS2B/NS3): 64 ± 2.5%; inhibition at 100 µM (ZIKV NS2B/NS3): 55 ± 2.3%
C=CCOC(=O)c1cc(O)c(O)c(O)c1 [Compound 2d]	12.4 ± 2.4	94.3	28.5 ± 3.2	> 150	53 ± 1.7	92.5 ± 3.1	29 ± 1	25 ± 2.2	
O=C(OCCCc1ccccc1)c1cc(O)c(O)c(O)c1 [Compound 2h]		45.1			99 ± 0.2	4.8 ± 0.5	20 ± 1		screening at 20 μM (%) (ZIKV NS2B/NS3; ZIKV NS2B/NS3, 20 μM compound): 96 ± 0.4%; inhibition at 20 µM (ZIKV NS2B/NS3): 96%
O=c1c2ccccc2[se]n1-c1ccccc1 [Ebselen, reference compound]									effect (%) of positive control (SARS-CoV-2 M^pro; Ebselen at 10 μM): 90%
CC(C)OC(=O)c1cc(O)c(O)c(O)c1 [Compound 2a]	20.7 ± 8.2	78	78.5 ± 8.1	> 150	98 ± 0.5	19.8 ± 0.5	48 ± 1	51 ± 3.4	IC50 (DENV-2 NS2B/NS3; IC50 (μM), DENV-2 NS2B/NS3, substrate 100 μM): > 100 µM
CC(C)CCOC(=O)c1cc(O)c(O)c(O)c1 [Compound 2e]	2.6 ± 1	99.5	47 ± 6.5	> 150	99 ± 0.2	13 ± 0.4	> 50	72 ± 3.1	
CC1(C)CC[C@]2(C)CC=C3[C@]4(C)CC[C@H]5C(C)(C)[C@@H](O)CC[C@]5(C)[C@H]4CC[C@@]3(C)[C@@H]2C1 [Compound 1, taraxerol]									effect at 200 μM (%) (SARS-CoV-2 M^pro; [3]): 48.0%; inhibition at 200 µM (SARS-CoV-2 M^pro): 48%
CC(C)=CCCC(C)CCOC(=O)c1cc(O)c(O)c(O)c1 (centres unmarked) [Compound 2g]	88.7 ± 11.6	73.3	32.1 ± 3.4	82.1 ± 31.5	97 ± 1.1	1.9 ± 0.1	28 ± 2		IC50 (ZIKV NS2B/NS3; [4]): 2.93 µM; IC50 (ZIKV NS2B/NS3; [5]): 2.48 µM; IC50 (ZIKV NS2B/NS3; [6]): 2.96 µM; IC50 (ZIKV NS2B/NS3; [7]): 2.03 µM; screening at 20 μM (%) (ZIKV NS2B/NS3; ZIKV NS2B/NS3, 20 μM compound): 99 ± 0.4%; mechanism of inhibition (ZIKV NS2B/NS3): noncompetitive; inhibition at 20 µM (ZIKV NS2B/NS3): 99%
C=CCCOC(=O)c1cc(O)c(O)c(O)c1 [Compound 2c]	35.8 ± 4.5	80.4	38.8 ± 4.4	> 150	48 ± 2.2	> 100	18 ± 3	25 ± 2.6	
methyl 3,5-dihydroxy-4-methoxybenzoate [Compound 2m]									effect at 200 μM (%) (SARS-CoV-2 M^pro; [3]): 44.2%
C=CC(C)(CCC=C(C)C)OC(=O)c1cc(O)c(O)c(O)c1 (centres unmarked) [Compound 2i]	4 ± 0.9	80	98.9 ± 5	> 150					
CC1(C)CC[C@]2(C)CC=C3[C@]4(C)CC[C@H]5C(C)(C)C(=O)CC[C@]5(C)[C@H]4CC[C@@]3(C)[C@@H]2C1 [Compound 1a, taraxerone]									effect at 200 μM (%) (SARS-CoV-2 M^pro; [3]): 84.0%; obs. (SARS-CoV-2 M^pro): SP^#; inhibition at 200 µM (SARS-CoV-2 M^pro): 84%; solubility during the biological testing (SARS-CoV-2 M^pro): low solubility
O=C(OCCc1ccccc1)c1cc(O)c(O)c(O)c1 [Compound 2j]		60.8	22.9 ± 3.2	> 150	82 ± 2.7	19.7 ± 2.1	22 ± 1	50 ± 3.8	obs. (SARS-CoV-2 M^pro): SP^#; solubility during the biological testing (SARS-CoV-2 M^pro): solubility problems
